Laboratory results as given in PMC6982876, “Synthesis of Novel Benzodifuranyl; 1,3,5-Triazines; 1,3,5-Oxadiazepines; and Thiazolopyrimidines Derived from Visnaginone and Khellinone as Anti-Inflammatory and Analgesic Agents” (Molecules, 2020).
pIC50: −log10 of the molar value. Marks after values point to notes of the source that are not given here.

What was measured:
[1] = system: acetic acid-induced writhing in mice; assay: Acetic acid-induced writhing test (analgesic activity); type: in vivo; details: 10 mg/kg p.o., n = 5; for Writhing Number in 20 min (Mean ± SEM): acetic acid 1 h after dosing; for Analgesic Activity (% protection): writhing test
In short: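 Mice of 25–30 g, fasted 8 h, given compound at 10 mg/kg p.o., five animals per group. One hour later, 1% acetic acid i.p. (0.1 mL/10 g); writhes counted over 20 min. Percent protection calculated against the saline control group.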

[2] = system: interleukin-1 beta (IL-1 β); assay: ELISA of serum interleukin-1 beta after paw edema test; type: in vivo, rats; details: rat serum at the end of the paw edema test, mean ± SEM, n = 5
Procedure: IL1 is one of the important inflammatory mediators and is used to confirm the anti-inflammatory activities of new anti-inflammatory compounds. At the end of the paw edema test, blood samples were collected from the orbital axis of the eye under light ether anesthesia. Sera were separated after centrifugation of blood at 5000 rpm for 15 min; the sera were stored at –80 °C until the ELISA assay was performed according to the manufacturer instructions.

ovine COX-1 = target: T1, ovine COX-1 (Ovis aries, UniProt P05979); assay: In vitro COX inhibitor screening assay (EIA kit, Cayman), COX-1; type: biochemical; details: mean of two determinations, enzyme kit, read-out: COX1 IC50
T1 construct: purchased Cayman Chemical, Ann Arbor, MI, USA 560131
T1 sequence (P05979 25-600): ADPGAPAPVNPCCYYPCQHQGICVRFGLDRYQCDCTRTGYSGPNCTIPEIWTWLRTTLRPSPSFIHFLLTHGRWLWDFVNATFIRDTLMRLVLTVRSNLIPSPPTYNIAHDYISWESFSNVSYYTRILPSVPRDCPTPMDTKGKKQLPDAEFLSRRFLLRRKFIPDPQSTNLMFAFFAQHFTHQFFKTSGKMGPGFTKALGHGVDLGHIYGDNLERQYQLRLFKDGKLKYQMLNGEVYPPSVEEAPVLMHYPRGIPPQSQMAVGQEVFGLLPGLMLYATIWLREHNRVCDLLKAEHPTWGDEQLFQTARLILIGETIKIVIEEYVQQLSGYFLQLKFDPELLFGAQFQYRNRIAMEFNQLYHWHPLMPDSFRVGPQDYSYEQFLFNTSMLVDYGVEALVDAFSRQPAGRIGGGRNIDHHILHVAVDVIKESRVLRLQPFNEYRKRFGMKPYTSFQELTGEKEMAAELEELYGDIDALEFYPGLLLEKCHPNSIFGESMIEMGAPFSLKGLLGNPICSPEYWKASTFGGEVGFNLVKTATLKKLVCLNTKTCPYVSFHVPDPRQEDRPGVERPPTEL
Procedure: (§1) Furthermore, the selectivity index for COX-2 (COX-1 IC50 / COX-2 IC50) was calculated for the compounds.

[3] = system: carrageenan-induced paw edema in rats; assay: Carrageenan-induced paw edema (anti-inflammatory activity); type: in vivo; details: 10 mg/kg oral; for % Change in Paw Height (Mean ± SEM): n = 5
In short: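 Albino rats weighing 150–180 g, in groups of five, received test compounds orally at 10 mg/kg; one hour later 0.1 mL of 1% carrageenan was injected into the left hind paw. Paw inflammation height was measured by digital caliber plethysmometer at 0, 1, 2 and 3 h, expressed as percentage increase relative to the uninjected right paw, with percentage edema inhibition versus control calculated at 3 h.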

human recombinant COX-2 = target: T2, human recombinant COX-2 (Homo sapiens, UniProt P35354); assay: In vitro COX inhibitor screening assay (EIA kit, Cayman), COX-2; type: biochemical; details: for COX2 (SI) selectivity index: COX-1 IC50 / COX-2 IC50; for pIC50: COX-2, mean of two determinations, enzyme kit, read-out: COX2 IC50
T2 construct: purchased Cayman Chemical, Ann Arbor, MI, USA 560131
T2 sequence (P35354 18-604): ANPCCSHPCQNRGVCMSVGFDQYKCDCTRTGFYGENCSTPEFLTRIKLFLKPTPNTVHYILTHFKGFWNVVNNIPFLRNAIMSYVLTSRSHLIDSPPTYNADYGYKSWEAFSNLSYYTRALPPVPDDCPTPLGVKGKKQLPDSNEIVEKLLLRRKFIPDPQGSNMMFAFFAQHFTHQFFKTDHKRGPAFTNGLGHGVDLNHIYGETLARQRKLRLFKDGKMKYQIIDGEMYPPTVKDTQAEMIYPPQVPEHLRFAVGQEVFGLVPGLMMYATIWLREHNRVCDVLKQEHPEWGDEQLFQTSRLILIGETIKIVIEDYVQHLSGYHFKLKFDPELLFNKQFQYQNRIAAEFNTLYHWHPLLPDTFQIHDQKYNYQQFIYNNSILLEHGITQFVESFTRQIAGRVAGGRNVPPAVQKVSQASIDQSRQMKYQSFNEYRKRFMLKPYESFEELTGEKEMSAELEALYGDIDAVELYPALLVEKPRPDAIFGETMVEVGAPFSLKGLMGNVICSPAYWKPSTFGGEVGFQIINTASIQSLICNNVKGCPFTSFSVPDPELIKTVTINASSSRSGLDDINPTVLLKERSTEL
Procedure: as §1

pIC50 (ovine COX-1) | melting point [°C] | COX2 (SI) selectivity index (human recombinant COX-2) | pIC50 (human recombinant COX-2) | SMILES | Writhing Number in 20 min (Mean ± SEM) [1] | Analgesic Activity (% protection) [1] | IL-1 β Concentration [2] | % Change in Paw Height (Mean ± SEM) ([3]; 1 hr after carrageenan) | % Change in Paw Height (Mean ± SEM) ([3]; 2 hr after carrageenan) | Anti-Inflammatory Activity (% Inhibition of Edema) ([3]; 3 hr after carrageenan) [%] | % Change in Paw Height (Mean ± SEM) ([3]; 3 hr after carrageenan)
5.24 | > 350 | 90 | 7.19 | COc1c2ccoc2cc2oc(C3=NC4=CC(=O)N5C(=O)C(=Cc6ccccc6)SC5N4C(=O)C(=Cc4ccccc4)O3)c(C)c12 (stereo not drawn) [Compound 13a, 2,10-di(benzylidene)-8-(4-methoxy-3-methylbenzo[1,2-b:5,4-b`]difuran-2-yl)-5H,12aH-thiazolo[2’,3’:2,3]pyrimido[6,1-d][1,3,5]oxadiazepine-3,5,11(2H,10H)-trione] | 33 ± 1.9 ^a | 42 ± 1.90 ^a % | 39 ± 0.31 ^b Pg /mL | 0.27 ± 0.02 ^a % | 0.21 ± 0.01 ^a % | 59 | 0.24 ± 0.01 ^a %
5.34 | > 350 | 96 | 7.32 | COc1c2ccoc2cc2oc(C(=Nc3cc(N4CCOCC4)nc(N4CCOCC4)n3)N3CCOCC3)c(C)c12 [Compound 10b, N-(2,6-dimorpholinopyrimidin-4-yl)-1-(4-methoxy-3-methylbenzo [1,2-b: 5,4-b`]difuran-2-yl)-1-morpholinomethanimine] | 27 ± 1.1 ^a | 48 ± 1.5 ^a % | 33 ± 0.38 ^b Pg /mL | 0.21 ± 0.02 ^a % | 0.16 ± 0.01 ^a % | 65 | 0.18 ± 0.01 ^a %
5.28 | > 350 | 95 | 7.26 | COc1c2ccoc2cc2oc(C3=NC4=CC(=O)N5C(=O)C(=Cc6ccc(Cl)cc6)SC5N4C(=O)C(=Cc4ccc(Cl)cc4)O3)c(C)c12 (stereo not drawn) [Compound 13b, 2,10-bis(4-chlorobenzylidene)-8-(4-methoxy-3-methylbenzo[1,2-b:5,4-b`]difuran-2-yl)-5H, 12aH-thiazolo[2’,3’:2,3]pyrimido[6,1-d][1,3,5]oxadiazepine-3,5,11(2H,10H)-trione] | 29 ± 1.5 ^a | 46 ± 1.6 ^a % | 35 ± 0.28 ^b Pg /mL | 0.23 ± 0.02 ^a % | 0.18 ± 0.01 ^a % | 63 | 0.20 ± 0.02 ^a %
